Legend:
[1] = Metabolic stability in human liver microsomes (HLM); type: in vitro ADME; conditions: for t1/2: 1 μM, 0.50 mg protein per mL; for microsomal CLint at 1 μM: both sexes, human, pooled human liver microsomes, pH 7.4, 0.50 mg protein per mL
Excerpt: HLM Stability. Pooled HLM from adult male and female donors (Corning 452117) were used.

5-HT1A receptor = target: T1, 5-HT1A receptor (Homo sapiens, UniProt P08908); assay: cell-based; conditions: Ca^2+ flux, agonist; read-out: 5-HT1A EC50
T1 construct: host or cells: CHO cells
T1 sequence (P08908 1-422): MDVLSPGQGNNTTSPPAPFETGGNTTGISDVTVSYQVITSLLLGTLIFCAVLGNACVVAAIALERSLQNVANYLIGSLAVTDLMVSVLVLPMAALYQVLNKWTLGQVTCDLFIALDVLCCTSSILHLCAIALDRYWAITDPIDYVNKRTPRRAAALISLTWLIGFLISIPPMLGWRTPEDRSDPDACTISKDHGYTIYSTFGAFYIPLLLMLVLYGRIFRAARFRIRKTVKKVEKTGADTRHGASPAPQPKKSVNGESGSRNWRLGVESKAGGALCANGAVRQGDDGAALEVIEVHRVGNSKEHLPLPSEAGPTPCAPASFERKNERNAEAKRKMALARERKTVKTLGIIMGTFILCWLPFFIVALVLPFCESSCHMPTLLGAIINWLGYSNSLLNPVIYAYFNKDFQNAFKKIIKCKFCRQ

human 5-HT2C receptor = target: T2, human 5-HT2C receptor (Homo sapiens, UniProt P28335); assay: cell-based; conditions: Ca^2+ flux, agonist
T2 sequence (P28335 33-458): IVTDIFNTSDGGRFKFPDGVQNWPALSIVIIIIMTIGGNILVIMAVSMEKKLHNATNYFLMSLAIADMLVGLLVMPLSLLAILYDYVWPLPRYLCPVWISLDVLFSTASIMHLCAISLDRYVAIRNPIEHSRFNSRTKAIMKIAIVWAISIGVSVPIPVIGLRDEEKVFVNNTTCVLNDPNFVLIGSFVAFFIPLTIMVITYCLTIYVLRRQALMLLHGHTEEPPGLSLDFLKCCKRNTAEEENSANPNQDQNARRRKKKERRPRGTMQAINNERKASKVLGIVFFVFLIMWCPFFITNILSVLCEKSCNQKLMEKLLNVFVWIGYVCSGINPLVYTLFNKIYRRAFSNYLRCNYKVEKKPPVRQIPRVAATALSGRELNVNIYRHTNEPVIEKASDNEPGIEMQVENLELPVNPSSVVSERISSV

5-HT2B receptor = target: T3, 5-HT2B receptor (Homo sapiens, UniProt P41595); assay: 5-HT2B receptor radioligand binding with [^3H]LSD
T3 construct: host or cells: HEK293
T3 sequence (P41595 whole entry): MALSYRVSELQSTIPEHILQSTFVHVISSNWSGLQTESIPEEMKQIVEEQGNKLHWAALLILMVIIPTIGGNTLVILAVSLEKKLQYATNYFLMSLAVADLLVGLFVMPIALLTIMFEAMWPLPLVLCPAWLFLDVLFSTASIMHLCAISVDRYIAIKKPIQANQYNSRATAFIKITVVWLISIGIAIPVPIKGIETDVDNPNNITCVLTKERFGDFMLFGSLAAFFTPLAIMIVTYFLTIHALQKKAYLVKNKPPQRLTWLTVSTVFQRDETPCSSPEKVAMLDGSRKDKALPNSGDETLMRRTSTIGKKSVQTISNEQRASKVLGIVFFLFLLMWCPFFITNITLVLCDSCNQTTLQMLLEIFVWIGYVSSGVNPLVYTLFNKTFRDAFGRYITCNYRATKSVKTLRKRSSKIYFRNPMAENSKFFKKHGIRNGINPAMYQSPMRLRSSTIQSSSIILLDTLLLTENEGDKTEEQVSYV

Sprague Dawley rats = assay: Forced swim test (FST) in rats; type: in vivo, rat; conditions: for efficacy in FST compared to positive control desipramine (in words): 0.032 mg/kg, SC
Method: Compound 1 induced antidepressant-like effects in the forced swim test (FST) in rats with a 23.5-h pre-treatment time (FIG. 2).
Animals. Male Sprague Dawley rats, aged 9-10 weeks, were used in this experiment. Animals were housed in groups of 2 under controlled temperature (22±3° C.) and relative humidity (30-70%) conditions, with 12-hour light/dark cycles, and with ad libitum food and water. This study was carried out in strict accordance with the requirements of the Committee for the Purpose of Control and Supervision of Experiments on Animals (CPCSEA), India. All efforts were made to minimize suffering.
Drugs and Drug Administration. Compound 1 was synthesized as described above. Desipramine HCl was commercially obtained. The test compound, saline vehicle, and the positive control desipramine were administered subcutaneously (SC), with doses calculated based on the freebase. Normal saline was used as the vehicle. All compounds were administered at a volume of 5 mL/kg. The test compound and vehicle were administered 0.5 h after the start of the training swim (Swim 1) and 23.5 h before the test swim (Swim 2). Desipramine was administered 3 times, at 23.5 h, 5 h, and 1 h before the test swim (Swim 2), each time at a dose of 20 mg/kg. Group size was n=10 per treatment.
Forced Swim Test (FST). […] Rats were handled for about 2 min daily for the 5 days prior to the beginning of the experimental procedure. On the first day of the experiment (i.e., Day 0), post randomization, training swim sessions (Swim 1) were conducted between 12:00 and 18:00 h with all animals by placing rats in individual glass cylinders (46 cm tall×20 cm in diameter) containing 23-25° C. water 30 cm deep for 15 minutes. At the conclusion of Swim 1, animals were dried with paper towels, placed in heated drying cages for 15 minutes, and then returned to their home cages. […]
Behavioral scoring was conducted by observers who were blind to the treatment groups. Animals were continuously observed during Swim 2 and the total time spent engaging in the following behaviors was recorded: immobile, swimming, and climbing. […]

Compound	t1/2 [1]	microsomal CLint at 1 μM [1]	EC50 (5-HT1A receptor)	EC50 (human 5-HT2C receptor)	Ki (5-HT2B receptor)	efficacy in FST compared to positive control desipramine (in words) (Sprague Dawley rats)	immobility time relative to vehicle (in words) (Sprague Dawley rats; rat FST, 23.5 h after a single SC administration)
CCN(CC)C(=O)[C@@H]1C=C2c3cccc4[nH]cc(c34)C[C@H]2N(Cc2ccccc2OC)C1 [Compound 10, (6aR,9R)—N,N-diethyl-7-(2-methoxybenzyl)-4,6,6a,7,8,9-hexahydroindolo[4,3-fg]quinoline-9-carboxamide]	7.3 min	190 µL/min/mg	30600 nM	> 10000 nM	–	–	–
CCCN1C[C@H](C(=O)NC(CC)CC)C=C2c3cccc4[nH]cc(c34)C[C@H]21 [Compound 6, (6aR,9R)—N-(pentan-3-yl)-7-propyl-4,6,6a,7,8,9-hexahydroindolo[4,3-fg]quinoline-9-carboxamide]	1.607 min	862 µL/min/mg	36.1 nM	6.18 nM	3.33 nM	–	–
CCCN1C[C@H](C(=O)N[C@H](C)CC)C=C2c3cccc4[nH]cc(c34)C[C@H]21 [Compound 3, (6aR,9R)—N—((R)-sec-butyl)-7-propyl-4,6,6a,7,8,9-hexahydroindolo[4,3-fg]quinoline-9-carboxamide]	4.2 min	331 µL/min/mg	1.79 nM	0.822 nM	4.09 nM	–	–
CCN(CC)C(=O)[C@@H]1C=C2c3cccc4[nH]cc(c34)C[C@H]2N(CCc2ccccc2OC)C1 [Compound 11, (6aR,9R)—N,N-diethyl-7-(2-methoxyphenethyl)-4,6,6a,7,8,9-hexahydroindolo[4,3-fg]quinoline-9-carboxamide]	2.372 min	584 µL/min/mg	29800 nM	74.5 nM	–	–	–
CCN(CC)C(=O)[C@@H]1C=C2c3cccc4[nH]cc(c34)C[C@H]2N(CCCF)C1 [Compound 2, (6aR,9R)—N,N-diethyl-7-(3-fluoropropyl)-4,6,6a,7,8,9-hexahydroindolo[4,3-fg]quinoline-9-carboxamide]	19.061 min	72.7 µL/min/mg	25.4 nM	4.35 nM	4.1 nM	as efficacious as the positive control desipramine	–
CCCN1C[C@H](C(=O)N(CC)CC)C=C2c3cccc4[nH]cc(c34)C[C@H]21 [Compound 1, (6aR,9R)—N,N-diethyl-7-propyl-4,6,6a,7,8,9-hexahydroindolo[4,3-fg]quinoline-9-carboxamide]	15.1 min	91.6 µL/min/mg	44.4 nM	11.9 nM	–	–	reduced immobility time
CCCN1C[C@H](C(=O)N2[C@@H](C)C[C@@H]2C)C=C2c3cccc4[nH]cc(c34)C[C@H]21 [Compound 4, ((2S,4S)-2,4-dimethylazetidin-1-yl)((6aR,9R)-7-propyl-4,6,6a,7,8,9-hexahydroindolo[4,3-fg]quinolin-9-yl)methanone]	10.6 min	130 µL/min/mg	5.88 nM	5.6 nM	17.7 nM	as efficacious as the positive control desipramine	–

From patent publication US20230116703A1, “NOVEL ERGOLINES AND METHODS OF TREATING MOOD DISORDERS” (priority 2021, published 2023)
